Assay results published in patent US20240043427A1 (Gilead Sciences, Inc., priority 2020, published 2024).

How the values were obtained:
CD73 [1] = molecular target: T1, CD73 (Homo sapiens (Human), UniProt P21589); assay type: biochemical; settings: 1 mM NaH2PO4 in enzyme buffer, CD73 0.3 nM, AMP 15 uM
Description: Compound serial dilutions were pre-spotted into Thermo Nunc assay plate. 50 uL CD73 enzyme buffer (CD73 purchased from R&D system=0.6 nM, 25 mM Tris, pH 7.4, 5 mM MgCl2, 1 mM NaH2PO4) was added into the assay plate and incubate for 15 mins. […] After incubation for 60 mins, the supernatant (20 uL) was transferred into 384-well NUNC plate pre-filled with 60 uL Quench buffer (80% organic and 20% water+0.1% FA) with internal standard. The plate was spun down at 4500 rpm for 20 mins, then 20 uL of supernatant was transferred to another Nunc plate prefilled with 80 uL of water. The samples were analyzed using Rapid fire.

CD73 [2] = molecular target: T1, CD73; assay: MDA-MB-231 Cell Based CD73 Activity Assay (DMEM); settings: MDA-MB-231-GFP cells, DMEM medium with 10% human plasma, 200 uM AMP

T1 sequence (P21589 27-574): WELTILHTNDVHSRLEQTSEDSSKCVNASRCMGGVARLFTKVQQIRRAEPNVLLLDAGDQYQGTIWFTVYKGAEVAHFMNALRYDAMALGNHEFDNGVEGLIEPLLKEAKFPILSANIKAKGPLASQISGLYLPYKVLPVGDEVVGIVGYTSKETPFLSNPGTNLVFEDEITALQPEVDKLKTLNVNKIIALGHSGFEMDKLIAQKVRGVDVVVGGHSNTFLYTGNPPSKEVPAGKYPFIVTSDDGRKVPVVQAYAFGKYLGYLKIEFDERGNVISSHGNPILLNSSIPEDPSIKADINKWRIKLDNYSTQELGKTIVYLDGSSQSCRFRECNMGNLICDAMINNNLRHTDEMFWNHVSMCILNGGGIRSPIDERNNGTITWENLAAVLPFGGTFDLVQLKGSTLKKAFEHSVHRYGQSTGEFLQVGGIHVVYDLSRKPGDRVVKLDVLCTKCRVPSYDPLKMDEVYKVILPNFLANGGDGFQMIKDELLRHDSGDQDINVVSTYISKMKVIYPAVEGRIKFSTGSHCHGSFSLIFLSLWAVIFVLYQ

Row | SMILES | IC50 (CD73 [1]) | EC50 (CD73 [2])
1 | CC(C)C(C)Oc1cc(-c2c[nH]c(=O)[nH]c2=O)nn2ccnc12 (centres unmarked) [Example 680, 5-(8-((3-methylbutan-2-yl)oxy)imidazo[1,2-b]pyridazin-6-yl)pyrimidine-2,4(1H,3H)-dione] | 225 nM | 454 nM
2 | O=c1[nH]cc(-c2cc(OCCC(F)(F)F)c3nccn3n2)c(=O)[nH]1 [Example 681, 5-(8-(3,3,3-trifluoropropoxy)imidazo[1,2-b]pyridazin-6-yl)pyrimidine-2,4(1H,3H)-dione] | 61.3 nM | 94 nM
3 | O=c1[nH]cc(-c2cc(OCC(F)(F)c3ccccc3)c3nccn3n2)c(=O)[nH]1 [Example 682, 5-(8-(2,2-difluoro-2-phenylethoxy)imidazo[1,2-b]pyridazin-6-yl)pyrimidine-2,4(1H,3H)-dione] | 1.59 nM | 17.9 nM
4 | C#CC1(C)CCN(c2cc(-c3c[nH]c(=O)[nH]c3=O)nn3ccnc23)C1 (centres unmarked) [Example 683, 5-(8-(3-ethynyl-3-methylpyrrolidin-1-yl)imidazo[1,2-b]pyridazin-6-yl)pyrimidine-2,4(1H,3H)-dione] | 1.31 nM | 10.9 nM
5 | C#CC1CCN(c2cc(-c3c[nH]c(=O)[nH]c3=O)nn3ccnc23)C1 (centres unmarked) [Example 684, 5-(8-(3-ethynylpyrrolidin-1-yl)imidazo[1,2-b]pyridazin-6-yl)pyrimidine-2,4(1H,3H)-dione] | 1.29 nM | 5.84 nM
6 | CC(C)(O)C#Cc1cc(-c2c[nH]c(=O)[nH]c2=O)nn2ccnc12 [Example 685, 5-(8-(3-hydroxy-3-methylbut-1-yn-1-yl)imidazo[1,2-b]pyridazin-6-yl)pyrimidine-2,4(1H,3H)-dione] | > 250 nM | 551 nM
7 | CC(C)(C)C#Cc1cc(-c2c[nH]c(=O)[nH]c2=O)nn2ccnc12 [Example 686, 5-(8-(3,3-dimethylbut-1-yn-1-yl)imidazo[1,2-b]pyridazin-6-yl)pyrimidine-2,4(1H,3H)-dione] | 45 nM | 285 nM
8 | O=c1[nH]cc(-c2cc(OCC(F)(F)CO)c3nccn3n2)c(=O)[nH]1 [Example 687, 5-(8-(2,2-difluoro-3-hydroxypropoxy)imidazo[1,2-b]pyridazin-6-yl)pyrimidine-2,4(1H,3H)-dione] | 8.72 nM | 53.5 nM
9 | CCC(F)(F)COc1cc(-c2c[nH]c(=O)[nH]c2=O)nn2ccnc12 [Example 688, 5-(8-(2,2-difluorobutoxy)imidazo[1,2-b]pyridazin-6-yl)pyrimidine-2,4(1H,3H)-dione] | 7.02 nM | 34.2 nM
10 | O=c1[nH]cc(-c2cc(OCC(F)(F)C3CC3)c3nccn3n2)c(=O)[nH]1 [Example 689, 5-(8-(2-cyclopropyl-2,2-difluoroethoxy)imidazo[1,2-b]pyridazin-6-yl)pyrimidine-2,4(1H,3H)-dione] | 3.02 nM | 10.6 nM
11 | O=c1[nH]cc(-c2cc(OCC(F)(F)C(F)(F)F)c3nccn3n2)c(=O)[nH]1 [Example 690, 5-(8-(2,2,3,3,3-pentafluoropropoxy)imidazo[1,2-b]pyridazin-6-yl)pyrimidine-2,4(1H,3H)-dione] | 12.7 nM | 21.9 nM
12 | C[C@H](COc1cc(-c2c[nH]c(=O)[nH]c2=O)nn2ccnc12)c1ccccc1 [Example 691, (S)-5-(8-(2-phenylpropoxy)imidazo[1,2-b]pyridazin-6-yl)pyrimidine-2,4(1H,3H)-dione] | 43.3 nM | 349 nM
13 | O=c1[nH]cc(-c2cc(OCC(F)(F)c3ccccn3)c3nccn3n2)c(=O)[nH]1 [Example 692, 5-(8-(2,2-difluoro-2-(pyridin-2-yl)ethoxy)imidazo[1,2-b]pyridazin-6-yl)pyrimidine-2,4(1H,3H)-dione] | 3.2 nM | 23.1 nM
14 | Cn1ccnc1C(F)(F)COc1cc(-c2c[nH]c(=O)[nH]c2=O)nn2ccnc12 [Example 693, 5-(8-(2,2-difluoro-2-(1-methyl-1H-imidazol-2-yl)ethoxy)imidazo[1,2-b]pyridazin-6-yl)pyrimidine-2,4(1H,3H)-dione] | 9.78 nM | 49.4 nM
15 | CC(C)NC(=O)OCC(F)(F)COc1cc(-c2c[nH]c(=O)[nH]c2=O)nn2ccnc12 [Example 694, 3-((6-(2,4-dioxo-1,2,3,4-tetrahydropyrimidin-5-yl)imidazo[1,2-b]pyridazin-8-yl)oxy)-2,2-difluoropropyl isopropylcarbamate] | 0.61 nM | 0.23 nM
16 | O=c1[nH]cc(-c2cc(OCC(F)(F)COc3ccccn3)c3nccn3n2)c(=O)[nH]1 [Example 695, 5-(8-(2,2-difluoro-3-(pyridin-2-yloxy)propoxy)imidazo[1,2-b]pyridazin-6-yl)pyrimidine-2,4(1H,3H)-dione] | 1.82 nM | 17.4 nM
17 | O=C(OCC(F)(F)F)OCC(F)(F)COc1cc(-c2c[nH]c(=O)[nH]c2=O)nn2ccnc12 [Example 696, 3-((6-(2,4-dioxo-1,2,3,4-tetrahydropyrimidin-5-yl)imidazo[1,2-b]pyridazin-8-yl)oxy)-2,2-difluoropropyl (2,2,2-trifluoroethyl) carbonate] | 0.51 nM | 105 nM
18 | O=c1[nH]cc(-c2cc([C@H]3C[C@@H]3c3ccc4c(F)nn(CC(F)(F)F)c4c3)c3ncc(F)n3n2)c(=O)[nH]1 [Example 697, 5-(3-fluoro-8-((1S,2S)-2-(3-fluoro-1-(2,2,2-trifluoroethyl)-1H-indazol-6-yl)cyclopropyl)imidazo[1,2-b]pyridazin-6-yl)pyrimidine-2,4(1H,3H)-dione] | 0.65 nM | 0.27 nM
19 | CC1(C)C(=O)N(CC(F)(F)F)c2cc([C@H]3C[C@@H]3c3cc(-c4c[nH]c(=O)[nH]c4=O)nn4ccnc34)cnc21 [Example 698, 5-(8-((1S,2S)-2-(3,3-dimethyl-2-oxo-1-(2,2,2-trifluoroethyl)-2,3-dihydro-1H-pyrrolo[3,2-b]pyridin-6-yl)cyclopropyl)imidazo[1,2-b]pyridazin-6-yl)pyrimidine-2,4(1H,3H)-dione] | 3.84 nM | 0.81 nM
20 | CC1(C)C(=O)N(CC(F)(F)F)c2cc([C@H]3C[C@@H]3c3cc(-c4c[nH]c(=O)[nH]c4=O)nn4ccnc34)cnc21 [Example 699, 5-(8-((1S,2S)-2-(3,3-dimethyl-2-oxo-1-(2,2,2-trifluoroethyl)-2,3-dihydro-1H-pyrrolo[3,2-b]pyridin-6-yl)cyclopropyl)imidazo[1,2-b]pyridazin-6-yl)pyrimidine-2,4(1H,3H)-dione] | 3.15 nM | 0.56 nM
21 | CC1(C)C(=O)N(CC(F)(F)F)c2cc([C@H]3C[C@@H]3c3cc(-c4c[nH]c(=O)[nH]c4=O)nn4ccnc34)ncc21 [Example 700, 5-(8-((1S,2S)-2-(3,3-dimethyl-2-oxo-1-(2,2,2-trifluoroethyl)-2,3-dihydro-1H-pyrrolo[3,2-c]pyridin-6-yl)cyclopropyl)imidazo[1,2-b]pyridazin-6-yl)pyrimidine-2,4(1H,3H)-dione] | 4.37 nM | 0.54 nM
22 | O=c1[nH]cc(-c2cc([C@H]3C[C@@H]3c3ccc4c(C(F)(F)F)cn(CC(F)(F)F)c4n3)c3nccn3n2)c(=O)[nH]1 [Example 701, 5-(8-((1S,2S)-2-(1-(2,2,2-trifluoroethyl)-3-(trifluoromethyl)-1H-pyrrolo[2,3-b]pyridin-6-yl)cyclopropyl)imidazo[1,2-b]pyridazin-6-yl)pyrimidine-2,4(1H,3H)-dione] | 3.04 nM | 2.56 nM
